Data as given in patent publication US8535672B2, “Broad-spectrum in-vivo effective superantigen toxin antagonists based on the interaction between CD28 and the superantigen and uses thereof” (Yissum Research Development of the Hebrew University of …, priority 2003, dated 2013).

Assays:
[1] = test system: IL2 and IFN-γ mRNA induced by SEB in human PBMC; format: cell-based
[2] = test system: IL2 and IFN-γ mRNA in human PBMC; format: cell-based
[3] = test system: IL10 and IL4 induced by SEB in human PBMC; format: cell-based
[4] = test system: IL2 and IFN-γ mRNA induced by αCD28, αCD3, sB7-2 in human PBMC; format: cell-based
soluble CD28 (sCD28) = target: T1, soluble CD28 (sCD28) (Homo sapiens, UniProt P10747); format: binding
T1 construct: comprise the extracellular 37-162, 19-152, 21-141, 24-167 and 20-239 amino acid, respectively, of the mature human ligands domain; purchased R&D Systems 342-CD; host or cells: mouse myeloma NS0 cells

SEB = SEB (Staphylococcus aureus, UniProt P01552); set-up: species or system BALB/c mice; conditions: mouse; for protection of mice from lethal SEB challenge / mice surviving SEB challenge / group: in vivo
[5] = mouse, in vivo
[6] = test system: IL2 and IFN-γ mRNA induced by TSST-1 in human PBMC; format: cell-based
sCD28/sB7-2 = target: T2, sCD28/sB7-2 (Homo sapiens, UniProt P10747); format: binding
T2 construct: comprise the extracellular 37-162, 19-152, 21-141, 24-167 and 20-239 amino acid, respectively, of the mature human ligands domain; purchased R&D Systems 342-CD (sCD28); host or cells: mouse myeloma NS0 cells

| Substance | antagonism of SEB-mediated induction of IL2 and IFN-γ mRNA [1] | induction of Th1 cytokine mRNA by the substance alone (agonist activity) [2] | effect on SEB-mediated induction of IL10 / IL4 (Th2 response) [3] | protection of mice from lethal SEB challenge (SEB) | molar excess (ratio) over SEB at which protective in vivo (SEB) | mice surviving SEB challenge / group (SEB) | toxicity of peptide alone [5] | other results |
| --- | --- | --- | --- | --- | --- | --- | --- | --- |
| AAAAAAAAAAMYPPPY [control peptide containing another motif in the sCD28 molecule, reference compound] | did not show antagonist activity | Neither pTA nor AAAAAAAAAAMYPPPY (SEQ ID NO: 7) alone were active as inducer |  |  |  |  |  |  |
| AAAAAAAHVKGKHLCP [pTA] | blocked | Neither pTA nor AAAAAAAAAAMYPPPY (SEQ ID NO: 7) alone were active as inducer | left the induction of IL10 and IL4 intact |  |  |  |  | effect on induction of IL2/IFN-γ mRNA by αCD28 alone [4]: inhibited |
| APMYHKHRLEKH (Synthetic peptide pe6) | inhibited |  |  |  |  |  |  |  |
| C-EKAKYTQLVKDN-C (CEKAKYTQLVKDNC; terminal cysteines; Sequence of artificial peptide p12Csc) [randomly scrambled p12C, reference compound] |  |  |  |  |  |  |  | binding to CD28 (SPR) (soluble CD28 (sCD28)): failed to bind CD28 |
| CHGHLVPKK (Synthetic scrambled control peptide p1TAsc) [scrambled form of p1TA, reference compound] | lacked antagonist activity |  |  | failed to provide protection |  |  |  |  |
| FHKHKNPGSPII [pc3] | inhibited | lacked superantigen agonist activity | failed to inhibit induction of IL10 |  | about equimolar ratio | 7/10 | lacked detectable toxicity |  |
| GEINGSAN (Synthetic peptide p2TC) | inhibited |  |  | protected mice from lethal challenge |  |  |  |  |
| HVKGKHLCP (Synthetic peptide p1TA) | antagonized |  |  |  | 3.6 fold | 7/10 | lacked detectable toxicity | inhibition of induction of IL2 and IFN-γ mRNA by TSST-1 [6]: inhibited; concentration without detectable toxicity, relative to that needed for protection [5]: 25 fold |
| IHKPHHHRTPLW (Synthetic peptide pf8) | inhibited |  |  |  |  |  |  |  |
| PAVVLASS (Synthetic peptide p2TB) | inhibited |  | left induction of IL10 intact | protected mice from lethal challenge | 2 fold |  |  |  |
| SHFTHNRHGHST (Synthetic Peptide pe12) | strongly inhibited | lacked superantigen agonist activity | failed to inhibit induction of IL10 |  | about equimolar ratio | 8/10 | lacked detectable toxicity |  |
| SPMLVAYD [p2TA] | antagonized |  |  |  | 0.8 fold | 8/10 | lacked detectable toxicity | inhibition of induction of IL2 and IFN-γ mRNA by TSST-1 [6]: inhibited; concentration without detectable toxicity, relative to that needed for protection [5]: 125 fold |
| WHAHPHKKPVVA [pd7] | inhibited | lacked superantigen agonist activity | failed to inhibit induction of IL10 |  |  | 4/10 | lacked detectable toxicity |  |
| YESQLCCQL (Synthetic peptide p1TC) | inhibited |  |  | protected mice from lethal challenge |  |  |  |  |
| YVIDPEPCP (Synthetic peptide p1TB) | inhibited |  | left induction of IL10 intact | protected mice from lethal challenge | 3.6 fold |  |  |  |
| pSEB(41-61): a peptide that lacks antagonist activity (IDQFLYFDLIYSIKDTKLGNY; UniProt P01552 68-88, looked up, fragment) [reference compound] |  |  |  |  |  |  |  | effect on plasmon resonance signal for binding of sCD28 to sB7-2 (sCD28/sB7-2): only slightly |
